In patent publication US10168342B2, “Lipid probes and uses thereof” (THE SCRIPPS RESEARCH INSTITUTE, priority 2015, dated 2019):
Read-outs that look alike come from different tables or passages of the source.

How the values were obtained:
[1] = target: AEA-DA lipid probe targets in Neuro2a cells (Mus musculus, UniProt O55143)
[2] = target: T1, AEA-DA lipid probe targets in Neuro2a cells (Mus musculus, UniProt P10649)
T1 sequence (P10649 1-218): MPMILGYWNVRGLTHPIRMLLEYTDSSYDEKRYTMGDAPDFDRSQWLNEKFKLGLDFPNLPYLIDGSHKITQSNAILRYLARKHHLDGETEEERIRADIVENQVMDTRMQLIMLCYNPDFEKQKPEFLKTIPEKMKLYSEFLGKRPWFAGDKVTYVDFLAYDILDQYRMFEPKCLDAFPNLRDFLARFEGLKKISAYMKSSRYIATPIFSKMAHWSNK

[3] = target: T2, AEA-DA lipid probe targets in Neuro2a cells (Mus musculus, UniProt P17439)
T2 sequence (P17439 20-515): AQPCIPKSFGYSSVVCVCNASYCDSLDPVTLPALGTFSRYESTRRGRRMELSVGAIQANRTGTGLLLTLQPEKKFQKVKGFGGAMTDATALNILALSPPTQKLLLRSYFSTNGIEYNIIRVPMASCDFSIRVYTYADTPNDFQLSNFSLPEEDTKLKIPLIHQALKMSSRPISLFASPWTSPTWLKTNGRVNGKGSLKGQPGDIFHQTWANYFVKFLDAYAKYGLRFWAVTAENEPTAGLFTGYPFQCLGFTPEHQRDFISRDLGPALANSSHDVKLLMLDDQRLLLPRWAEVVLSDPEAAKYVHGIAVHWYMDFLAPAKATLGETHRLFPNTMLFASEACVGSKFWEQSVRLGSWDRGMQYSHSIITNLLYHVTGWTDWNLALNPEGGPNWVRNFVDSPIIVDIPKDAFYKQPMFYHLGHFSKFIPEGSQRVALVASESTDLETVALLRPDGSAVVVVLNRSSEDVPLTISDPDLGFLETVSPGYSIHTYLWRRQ

[4] = target: AEA-DA lipid probe targets in Neuro2a cells (Mus musculus, UniProt P29391)
Sequence of AEA-DA lipid probe targets in Neuro2a cells (Mus musculus, UniProt P29391) (P29391 whole entry): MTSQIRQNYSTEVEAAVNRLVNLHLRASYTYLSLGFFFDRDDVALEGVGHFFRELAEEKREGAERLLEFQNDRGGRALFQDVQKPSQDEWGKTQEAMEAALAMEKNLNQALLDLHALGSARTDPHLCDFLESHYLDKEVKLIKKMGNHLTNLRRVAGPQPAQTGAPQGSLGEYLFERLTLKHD

[5] = target: AEA-DA lipid probe targets in Neuro2a cells (Mus musculus, UniProt P47740)
Sequence of AEA-DA lipid probe targets in Neuro2a cells (Mus musculus, UniProt P47740) (P47740 whole entry): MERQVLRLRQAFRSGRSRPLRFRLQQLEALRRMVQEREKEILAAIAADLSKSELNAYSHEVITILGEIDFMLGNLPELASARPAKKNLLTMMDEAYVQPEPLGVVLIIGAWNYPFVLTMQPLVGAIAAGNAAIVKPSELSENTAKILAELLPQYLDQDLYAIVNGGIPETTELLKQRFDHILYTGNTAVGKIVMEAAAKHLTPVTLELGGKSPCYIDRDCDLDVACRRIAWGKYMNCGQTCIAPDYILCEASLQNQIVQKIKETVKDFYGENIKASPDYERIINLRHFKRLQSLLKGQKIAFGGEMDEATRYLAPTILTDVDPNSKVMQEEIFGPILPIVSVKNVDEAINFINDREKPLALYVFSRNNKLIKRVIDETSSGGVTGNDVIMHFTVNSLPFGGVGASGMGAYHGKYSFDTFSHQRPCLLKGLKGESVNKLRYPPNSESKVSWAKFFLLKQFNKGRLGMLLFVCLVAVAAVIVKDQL

[6] = target: AEA-DA lipid probe targets in Neuro2a cells (Mus musculus, UniProt P60229)
Sequence of AEA-DA lipid probe targets in Neuro2a cells (Mus musculus, UniProt P60229) (P60229 whole entry): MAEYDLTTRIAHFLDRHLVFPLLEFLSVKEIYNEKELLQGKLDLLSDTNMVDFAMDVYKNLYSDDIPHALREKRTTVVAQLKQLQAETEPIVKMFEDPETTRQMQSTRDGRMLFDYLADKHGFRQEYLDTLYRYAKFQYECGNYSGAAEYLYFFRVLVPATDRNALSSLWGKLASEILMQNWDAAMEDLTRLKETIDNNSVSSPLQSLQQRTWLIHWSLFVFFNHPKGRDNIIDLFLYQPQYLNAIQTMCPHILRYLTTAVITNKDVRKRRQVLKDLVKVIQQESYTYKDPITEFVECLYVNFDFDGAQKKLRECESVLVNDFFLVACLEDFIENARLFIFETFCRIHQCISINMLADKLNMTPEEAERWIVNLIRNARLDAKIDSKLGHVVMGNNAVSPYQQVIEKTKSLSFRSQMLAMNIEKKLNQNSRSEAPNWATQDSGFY

[7] = target: T3, AEA-DA lipid probe targets in Neuro2a cells (Mus musculus, UniProt P62492)
T3 sequence (P62492 1-216): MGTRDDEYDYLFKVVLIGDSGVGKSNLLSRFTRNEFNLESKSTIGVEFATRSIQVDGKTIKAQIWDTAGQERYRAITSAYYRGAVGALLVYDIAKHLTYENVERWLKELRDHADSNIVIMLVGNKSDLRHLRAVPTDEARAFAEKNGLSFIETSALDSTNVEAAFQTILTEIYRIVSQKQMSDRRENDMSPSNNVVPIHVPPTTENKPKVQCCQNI

[8] = target: AEA-DA lipid probe targets in Neuro2a cells (Mus musculus, UniProt P70699)
Sequence of AEA-DA lipid probe targets in Neuro2a cells (Mus musculus, UniProt P70699) (P70699 70-953): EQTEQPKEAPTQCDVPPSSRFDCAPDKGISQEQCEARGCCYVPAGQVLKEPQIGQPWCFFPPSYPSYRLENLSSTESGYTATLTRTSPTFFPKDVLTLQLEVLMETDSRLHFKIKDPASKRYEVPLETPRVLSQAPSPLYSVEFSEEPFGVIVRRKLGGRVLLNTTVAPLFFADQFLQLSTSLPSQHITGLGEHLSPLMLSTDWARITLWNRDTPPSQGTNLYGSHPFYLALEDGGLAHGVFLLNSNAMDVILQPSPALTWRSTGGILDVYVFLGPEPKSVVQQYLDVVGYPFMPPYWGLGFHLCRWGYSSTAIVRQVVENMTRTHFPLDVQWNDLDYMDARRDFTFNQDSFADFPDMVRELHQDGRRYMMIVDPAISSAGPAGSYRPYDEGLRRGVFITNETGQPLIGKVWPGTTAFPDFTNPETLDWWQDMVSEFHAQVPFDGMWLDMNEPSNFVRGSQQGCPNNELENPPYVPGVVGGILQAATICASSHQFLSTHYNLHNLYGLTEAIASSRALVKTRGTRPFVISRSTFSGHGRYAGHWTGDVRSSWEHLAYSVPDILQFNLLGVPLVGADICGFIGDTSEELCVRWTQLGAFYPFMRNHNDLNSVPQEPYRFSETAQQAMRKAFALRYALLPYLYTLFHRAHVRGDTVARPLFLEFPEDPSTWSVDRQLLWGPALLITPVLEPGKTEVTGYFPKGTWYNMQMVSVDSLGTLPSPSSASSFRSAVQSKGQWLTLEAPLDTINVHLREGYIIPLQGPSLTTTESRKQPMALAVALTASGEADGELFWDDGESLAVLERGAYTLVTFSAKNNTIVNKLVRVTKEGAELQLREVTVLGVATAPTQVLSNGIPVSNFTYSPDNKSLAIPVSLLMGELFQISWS

[9] = target: AEA-DA lipid probe targets in Neuro2a cells (Mus musculus, UniProt Q61584)
Sequence of AEA-DA lipid probe targets in Neuro2a cells (Mus musculus, UniProt Q61584) (Q61584 whole entry): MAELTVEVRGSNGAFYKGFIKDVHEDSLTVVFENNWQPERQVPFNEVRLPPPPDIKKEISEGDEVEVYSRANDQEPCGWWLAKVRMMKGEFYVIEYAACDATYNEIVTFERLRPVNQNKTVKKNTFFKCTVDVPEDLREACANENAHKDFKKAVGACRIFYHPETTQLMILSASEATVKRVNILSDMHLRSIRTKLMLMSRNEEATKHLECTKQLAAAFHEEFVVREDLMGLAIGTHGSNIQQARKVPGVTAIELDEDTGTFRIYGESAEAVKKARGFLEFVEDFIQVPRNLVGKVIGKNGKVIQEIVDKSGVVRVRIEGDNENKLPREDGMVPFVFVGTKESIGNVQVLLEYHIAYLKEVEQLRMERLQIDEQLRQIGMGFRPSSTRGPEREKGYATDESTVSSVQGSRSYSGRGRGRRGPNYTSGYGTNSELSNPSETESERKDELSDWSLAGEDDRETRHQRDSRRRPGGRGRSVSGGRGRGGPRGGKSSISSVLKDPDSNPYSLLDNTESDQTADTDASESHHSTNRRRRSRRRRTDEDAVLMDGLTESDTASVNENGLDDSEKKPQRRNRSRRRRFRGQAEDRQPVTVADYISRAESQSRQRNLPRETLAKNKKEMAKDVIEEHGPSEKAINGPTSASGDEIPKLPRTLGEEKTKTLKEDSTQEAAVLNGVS

[10] = target: T4, AEA-DA lipid probe targets in Neuro2a cells (Mus musculus, UniProt Q8BXV2)
T4 sequence (Q8BXV2 1-253): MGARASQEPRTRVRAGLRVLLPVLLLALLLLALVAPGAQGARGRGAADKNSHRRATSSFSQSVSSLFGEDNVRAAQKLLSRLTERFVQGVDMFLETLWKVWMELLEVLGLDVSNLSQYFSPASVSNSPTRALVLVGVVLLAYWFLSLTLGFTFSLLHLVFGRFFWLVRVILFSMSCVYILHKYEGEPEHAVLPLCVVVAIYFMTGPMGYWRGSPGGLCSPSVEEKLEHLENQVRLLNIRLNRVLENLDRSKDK

[11] = target: AEA-DA lipid probe targets in Neuro2a cells (Mus musculus, UniProt Q91VE6)
Sequence of AEA-DA lipid probe targets in Neuro2a cells (Mus musculus, UniProt Q91VE6) (Q91VE6 whole entry): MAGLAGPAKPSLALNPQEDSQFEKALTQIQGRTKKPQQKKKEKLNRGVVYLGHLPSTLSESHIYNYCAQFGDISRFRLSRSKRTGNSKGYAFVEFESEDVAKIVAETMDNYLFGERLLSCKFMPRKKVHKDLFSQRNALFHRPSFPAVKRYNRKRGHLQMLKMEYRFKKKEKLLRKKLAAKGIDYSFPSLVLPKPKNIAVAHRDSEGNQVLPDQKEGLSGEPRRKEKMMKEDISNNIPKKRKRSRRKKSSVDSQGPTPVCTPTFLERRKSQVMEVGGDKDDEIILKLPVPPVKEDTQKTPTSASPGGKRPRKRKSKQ

[12] = target: AEA-DA lipid probe targets in Neuro2a cells (Mus musculus, UniProt Q9CYN2)
Sequence of AEA-DA lipid probe targets in Neuro2a cells (Mus musculus, UniProt Q9CYN2) (Q9CYN2 whole entry): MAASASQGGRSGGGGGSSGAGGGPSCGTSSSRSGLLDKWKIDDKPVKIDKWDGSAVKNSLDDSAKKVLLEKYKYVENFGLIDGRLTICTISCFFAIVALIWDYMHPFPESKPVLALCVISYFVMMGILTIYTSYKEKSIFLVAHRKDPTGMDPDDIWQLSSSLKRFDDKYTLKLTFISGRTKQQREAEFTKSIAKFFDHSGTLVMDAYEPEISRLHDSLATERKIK

[13] = target: AEA-DA lipid probe targets in Neuro2a cells (Mus musculus, UniProt Q9ET22)
Sequence of AEA-DA lipid probe targets in Neuro2a cells (Mus musculus, UniProt Q9ET22) (Q9ET22 37-506): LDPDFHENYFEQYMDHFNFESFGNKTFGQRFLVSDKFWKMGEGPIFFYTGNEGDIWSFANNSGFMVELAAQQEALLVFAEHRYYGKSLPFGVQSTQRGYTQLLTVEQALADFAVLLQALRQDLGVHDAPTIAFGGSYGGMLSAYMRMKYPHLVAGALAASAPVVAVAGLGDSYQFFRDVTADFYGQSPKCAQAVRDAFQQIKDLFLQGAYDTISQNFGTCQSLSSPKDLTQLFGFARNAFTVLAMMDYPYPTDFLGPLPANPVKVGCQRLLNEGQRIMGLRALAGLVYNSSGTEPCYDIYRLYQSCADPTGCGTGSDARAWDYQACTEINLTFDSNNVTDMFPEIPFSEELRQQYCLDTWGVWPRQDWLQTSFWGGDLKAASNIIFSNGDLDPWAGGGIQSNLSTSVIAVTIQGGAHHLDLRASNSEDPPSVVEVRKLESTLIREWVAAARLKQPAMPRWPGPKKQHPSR

[14] = target: T5, AEA-DA lipid probe targets in Neuro2a cells (Mus musculus, UniProt Q9R1J0); conditions: for SILAC ratio, NSDHL (Q15738): Neuro2a cells, AEA-DA probe
T5 sequence (Q9R1J0 1-362): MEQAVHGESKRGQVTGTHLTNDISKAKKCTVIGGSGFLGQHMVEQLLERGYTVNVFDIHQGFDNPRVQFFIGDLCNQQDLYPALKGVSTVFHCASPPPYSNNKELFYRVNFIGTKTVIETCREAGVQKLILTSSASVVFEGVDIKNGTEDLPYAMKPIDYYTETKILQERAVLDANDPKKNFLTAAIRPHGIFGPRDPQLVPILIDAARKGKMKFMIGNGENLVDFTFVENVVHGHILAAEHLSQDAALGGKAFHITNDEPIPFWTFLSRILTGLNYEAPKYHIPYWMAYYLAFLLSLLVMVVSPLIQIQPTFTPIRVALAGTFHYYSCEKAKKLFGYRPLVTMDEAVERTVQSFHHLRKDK

[15] = target: T6, AEA-DA lipid probe targets in Neuro2a cells (Mus musculus, UniProt Q9D938)
T6 sequence (Q9D938 97-188): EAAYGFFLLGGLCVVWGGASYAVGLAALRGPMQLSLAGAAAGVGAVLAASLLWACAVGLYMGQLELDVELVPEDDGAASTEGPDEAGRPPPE

Sequence of AEA-DA lipid probe targets in Neuro2a cells (Mus musculus, UniProt O55143) (O55143 whole entry): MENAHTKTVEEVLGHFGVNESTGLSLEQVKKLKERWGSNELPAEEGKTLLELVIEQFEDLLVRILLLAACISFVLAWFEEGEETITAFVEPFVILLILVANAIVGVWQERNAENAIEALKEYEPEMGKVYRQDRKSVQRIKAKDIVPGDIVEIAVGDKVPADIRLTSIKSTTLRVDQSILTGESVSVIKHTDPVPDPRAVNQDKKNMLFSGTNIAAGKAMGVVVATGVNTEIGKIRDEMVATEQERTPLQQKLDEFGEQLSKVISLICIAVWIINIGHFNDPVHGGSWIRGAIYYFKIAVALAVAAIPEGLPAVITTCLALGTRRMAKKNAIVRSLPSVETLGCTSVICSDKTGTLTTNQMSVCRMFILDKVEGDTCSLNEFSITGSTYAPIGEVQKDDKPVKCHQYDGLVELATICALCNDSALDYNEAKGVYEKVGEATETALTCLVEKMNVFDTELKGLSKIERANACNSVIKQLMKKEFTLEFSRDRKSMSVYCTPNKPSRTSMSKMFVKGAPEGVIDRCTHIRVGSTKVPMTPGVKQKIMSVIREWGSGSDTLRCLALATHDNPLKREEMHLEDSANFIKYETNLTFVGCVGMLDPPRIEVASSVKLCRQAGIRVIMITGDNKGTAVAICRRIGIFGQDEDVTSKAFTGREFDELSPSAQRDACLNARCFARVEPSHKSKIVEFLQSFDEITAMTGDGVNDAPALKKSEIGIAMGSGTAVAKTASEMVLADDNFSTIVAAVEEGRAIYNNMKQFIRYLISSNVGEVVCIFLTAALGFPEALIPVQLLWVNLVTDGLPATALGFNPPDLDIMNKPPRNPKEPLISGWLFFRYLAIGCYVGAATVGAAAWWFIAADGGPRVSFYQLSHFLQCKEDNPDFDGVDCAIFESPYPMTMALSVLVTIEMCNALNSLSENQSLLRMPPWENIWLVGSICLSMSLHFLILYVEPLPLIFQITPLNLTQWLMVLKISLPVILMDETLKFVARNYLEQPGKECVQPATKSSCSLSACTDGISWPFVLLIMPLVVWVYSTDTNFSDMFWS

## CCCCC/C=C\C/C=C\C/C=C\C/C=C\CCCC(=O)NCCO [AEA, anandamide, reference compound]
[1]; competitor 200 μM
  SILAC ratio, Atp2a2: 2.2
[2]; competitor 200 μM
  SILAC ratio, Gstm1: 2.3
[3]; competitor 200 μM
  SILAC ratio Gba: 1.5
[4]; competitor 200 μM
  SILAC ratio Ftl1: 1.6
[5]; competitor 200 μM
  SILAC ratio, Aldh3a2: 1.7
[6]; competitor 200 μM
  SILAC ratio Eif3e: 1.2
[7]; competitor 200 μM
  SILAC ratio, Rab11a: 1.6
[8]; competitor 200 μM
  SILAC ratio Gaa: 1.4
[9]; competitor 200 μM
  SILAC ratio Fxr1: 1.1
[10]; competitor 200 μM
  SILAC ratio, Bri3bp: 2.0
[11]; competitor 200 μM
  SILAC ratio Mki67ip: 1.4
[12]; competitor 200 μM
  SILAC ratio Spcs2: 1.7
[13]; competitor 200 μM
  SILAC ratio Dpp7: 1.4
[14]; competitor 200 μM
  SILAC ratio, NSDHL (Q15738): 2.0
  SILAC ratio, Nsdhl: 2.0

## O=C(/C=C/c1cccnc1)NCCCCC1CCN(C(=O)c2ccccc2)CC1 [FK-866, reference compound]
[1]; competitor 25 μM
  SILAC ratio, Atp2a2: 1.1
[2]; competitor 25 μM
  SILAC ratio, Gstm1: 1.5
[3]; competitor 25 μM
  SILAC ratio Gba: 1.0
[4]; competitor 25 μM
  SILAC ratio Ftl1: 1.6
[5]; competitor 25 μM
  SILAC ratio, Aldh3a2: 1.6
[6]; competitor 25 μM
  SILAC ratio Eif3e: 1.1
[7]; competitor 25 μM
  SILAC ratio, Rab11a: 1.2
[8]; competitor 25 μM
  SILAC ratio Gaa: 1.1
[9]; competitor 25 μM
  SILAC ratio Fxr1: 1.4
[10]; competitor 25 μM
  SILAC ratio, Bri3bp: 1.1
[11]; competitor 25 μM
  SILAC ratio Mki67ip: 1.0
[12]; competitor 25 μM
  SILAC ratio Spcs2: 1.3
[15]; competitor 25 μM
  SILAC ratio, Tmem160: 1.2
[13]; competitor 25 μM
  SILAC ratio Dpp7: 1.0
[14]; competitor 25 μM
  SILAC ratio, NSDHL (Q15738): 1.3
  SILAC ratio, Nsdhl: 1.3

## CN1CCN(C(=O)c2c(-c3ccccc3)c3cc([N+](=O)[O-])ccc3n2C)CC1 [KML110, (1-Methyl-5-nitro-3-phenyl-1H-indol-2-yl)(4-methylpiperazin-1-yl)methanone]
[1]; competitor 25 μM
  SILAC ratio, Atp2a2: 1.3
[2]; competitor 25 μM
  SILAC ratio, Gstm1: 2.2
[3]; competitor 25 μM
  SILAC ratio Gba: 2.4
[4]; competitor 25 μM
  SILAC ratio Ftl1: 0.9
[5]; competitor 25 μM
  SILAC ratio, Aldh3a2: 1.4
[6]; competitor 25 μM
  SILAC ratio Eif3e: 1.4
[7]; competitor 25 μM
  SILAC ratio, Rab11a: 1.6
[8]; competitor 25 μM
  SILAC ratio Gaa: 1.6
[9]; competitor 25 μM
  SILAC ratio Fxr1: 1.5
[10]; competitor 25 μM
  SILAC ratio, Bri3bp: 1.6
[11]; competitor 25 μM
  SILAC ratio Mki67ip: 1.5
[12]; competitor 25 μM
  SILAC ratio Spcs2: 1.6
[15]; competitor 25 μM
  SILAC ratio, Tmem160: 1.3
[13]; competitor 25 μM
  SILAC ratio Dpp7: 1.5
[14]; competitor 25 μM
  SILAC ratio, Nsdhl: 1.7

## CN1CCN(C(=O)c2[nH]c3ccc([N+](=O)[O-])cc3c2-c2ccccc2)CC1 [MJN228, (4-Methylpiperazin-1-yl)(5-nitro-3-phenyl-1H-indol-2-yl)methanone]
[1]; competitor 10 μM
  SILAC ratio, Atp2a2: 1.3
[1]; competitor 25 μM
  SILAC ratio, Atp2a2: 1.4
[1]; competitor 50 μM
  SILAC ratio, Atp2a2: 1.4
[1]; competitor 100 μM
  SILAC ratio, Atp2a2: 1.9
[2]; competitor 10 μM
  SILAC ratio, Gstm1: 1.7
[2]; competitor 25 μM
  SILAC ratio, Gstm1: 1.7
[2]; competitor 50 μM
  SILAC ratio, Gstm1: 2.1
[2]; competitor 100 μM
  SILAC ratio, Gstm1: 2.6
[3]; competitor 10 μM
  SILAC ratio Gba: 2.2
[4]; competitor 100 μM
  SILAC ratio Ftl1: 1.0
[5]; competitor 10 μM
  SILAC ratio, Aldh3a2: 1.2
[5]; competitor 25 μM
  SILAC ratio, Aldh3a2: 1.8
[5]; competitor 50 μM
  SILAC ratio, Aldh3a2: 1.7
[5]; competitor 100 μM
  SILAC ratio, Aldh3a2: 2.1
[6]; competitor 10 μM
  SILAC ratio Eif3e: 1.1
[6]; competitor 25 μM
  SILAC ratio Eif3e: 1.1
[6]; competitor 50 μM
  SILAC ratio Eif3e: 1.0
[6]; competitor 100 μM
  SILAC ratio Eif3e: 1.0
[7]; competitor 10 μM
  SILAC ratio, Rab11a: 1.2
[7]; competitor 25 μM
  SILAC ratio, Rab11a: 1.6
[7]; competitor 50 μM
  SILAC ratio, Rab11a: 1.9
[7]; competitor 100 μM
  SILAC ratio, Rab11a: 2.4
[8]; competitor 10 μM
  SILAC ratio Gaa: 1.0
[8]; competitor 25 μM
  SILAC ratio Gaa: 1.2
[8]; competitor 50 μM
  SILAC ratio Gaa: 1.4
[8]; competitor 100 μM
  SILAC ratio Gaa: 1.2
[9]; competitor 10 μM
  SILAC ratio Fxr1: 1.2
[9]; competitor 25 μM
  SILAC ratio Fxr1: 1.3
[9]; competitor 50 μM
  SILAC ratio Fxr1: 1.1
[9]; competitor 100 μM
  SILAC ratio Fxr1: 1.1
[10]; competitor 10 μM
  SILAC ratio, Bri3bp: 1.3
[10]; competitor 25 μM
  SILAC ratio, Bri3bp: 1.5
[10]; competitor 50 μM
  SILAC ratio, Bri3bp: 1.4
[10]; competitor 100 μM
  SILAC ratio, Bri3bp: 2.1
[11]; competitor 10 μM
  SILAC ratio Mki67ip: 1.2
[11]; competitor 25 μM
  SILAC ratio Mki67ip: 1.5
[11]; competitor 50 μM
  SILAC ratio Mki67ip: 1.8
[11]; competitor 100 μM
  SILAC ratio Mki67ip: 2.3
[12]; competitor 10 μM
  SILAC ratio Spcs2: 1.2
[12]; competitor 25 μM
  SILAC ratio Spcs2: 1.4
[12]; competitor 50 μM
  SILAC ratio Spcs2: 1.5
[12]; competitor 100 μM
  SILAC ratio Spcs2: 1.8
[15]; competitor 10 μM
  SILAC ratio, Tmem160: 1.2
[15]; competitor 25 μM
  SILAC ratio, Tmem160: 1.5
[15]; competitor 100 μM
  SILAC ratio, Tmem160: 3.5
[13]; competitor 10 μM
  SILAC ratio Dpp7: 1.0
[13]; competitor 25 μM
  SILAC ratio Dpp7: 0.7
[13]; competitor 50 μM
  SILAC ratio Dpp7: 1.0
[13]; competitor 100 μM
  SILAC ratio Dpp7: 0.7
[14]; competitor 25 μM
  SILAC ratio, NSDHL (Q15738): 2.3
  SILAC ratio, Nsdhl: 2.3
[14]; competitor 10 μM
  SILAC ratio, Nsdhl: 1.7
[14]; competitor 50 μM
  SILAC ratio, Nsdhl: 3.0
[14]; competitor 100 μM
  SILAC ratio, Nsdhl: 4.0

## C=CCN(C)CCCCCCOc1ccc(C(=O)c2ccc(Br)cc2)c(F)c1 [Ro 48-8071, reference compound]
[1]; competitor 25 μM
  SILAC ratio, Atp2a2: 1.2
[2]; competitor 25 μM
  SILAC ratio, Gstm1: 1.4
[3]; competitor 25 μM
  SILAC ratio Gba: 0.7
[4]; competitor 25 μM
  SILAC ratio Ftl1: 0.4
[5]; competitor 25 μM
  SILAC ratio, Aldh3a2: 1.3
[6]; competitor 25 μM
  SILAC ratio Eif3e: 0.8
[7]; competitor 25 μM
  SILAC ratio, Rab11a: 1.3
[8]; competitor 25 μM
  SILAC ratio Gaa: 0.5
[9]; competitor 25 μM
  SILAC ratio Fxr1: 0.9
[10]; competitor 25 μM
  SILAC ratio, Bri3bp: 1.1
[11]; competitor 25 μM
  SILAC ratio Mki67ip: 1.0
[12]; competitor 25 μM
  SILAC ratio Spcs2: 1.2
[15]; competitor 25 μM
  SILAC ratio, Tmem160: 1.2
[13]; competitor 25 μM
  SILAC ratio Dpp7: 0.3
[14]; competitor 25 μM
  SILAC ratio, NSDHL (Q15738): 1.3
  SILAC ratio, Nsdhl: 1.3
